From PMC12482042, “Targeting galectin-3 in cancer by novel and unique inhibitors of non-carbohydrate origin” (Molecular Medicine, 2025)
Where two headings read alike, the source gives them in different places.

Assays:
galectin-3 [1] = target: T1, galectin-3 (Homo sapiens, UniProt P17931); assay: intrinsic tryptophan fluorescence spectroscopy titration; also competitive ELISA against asialo-fetuin (IC50 […]) and CD; format: binding
T1 construct: gene LGALS3; human recombinant galectin-3 expressed in E. coli

galectin-3 [2] = target: T1, galectin-3; assay: as above; format: binding; remark: listed apart in the source

T1 sequence (P17931 2-250): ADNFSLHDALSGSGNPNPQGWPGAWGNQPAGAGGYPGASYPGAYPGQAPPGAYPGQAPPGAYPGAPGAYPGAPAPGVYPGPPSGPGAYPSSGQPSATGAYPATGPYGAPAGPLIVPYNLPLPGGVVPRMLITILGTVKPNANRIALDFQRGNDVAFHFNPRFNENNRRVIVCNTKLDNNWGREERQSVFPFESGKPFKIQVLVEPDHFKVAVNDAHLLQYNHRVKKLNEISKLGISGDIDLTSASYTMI

| SMILES | Kd (galectin-3 [1]) [µM] | Kd (galectin-3 [2]) [µM] |
| --- | --- | --- |
| C[C@H]1COc2c(N3CCN(C)CC3)c(F)cc3c(=O)c(C(=O)NNc4ccc(N)cc4)cn1c23 [K2] | 18.1 ± 1.5 | – |
| C[C@H]1COc2c(N3CCN(C)CC3)c(F)cc3c(=O)c(C(=O)NNc4cccc(N)c4)cn1c23 [L2] | – | 30.2 ± 1.4 |
